Test results reported in PubChem BioAssay (NCI).
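Step 1: Grow cells in 96-well plates. Step 2: Expose to compound for 48 hours at 5 concentrations. Step 3: Interpolate endpoints linearly; if unreached, use highest concentration. At the TGI there is no net growth.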

Experiments:
Assay in all cases: NCI tumour cell line growth inhibition, 48 h
786-0 renal = test system: 786-0 renal
A498 renal = test system: A498 renal
A549 NSCLC = test system: A549 NSCLC
ACHN renal = test system: ACHN renal
BT-549 breast = test system: BT-549 breast
CAKI-1 renal = test system: CAKI-1 renal
CCRF-CEM leukemia = test system: CCRF-CEM leukemia
COLO 205 colon = test system: COLO 205 colon
DU-145 prostate = test system: DU-145 prostate
EKVX NSCLC = test system: EKVX NSCLC
HCT-116 colon = test system: HCT-116 colon
HCT-15 colon = test system: HCT-15 colon
HL-60(TB) leukemia = test system: HL-60(TB) leukemia
HOP-92 NSCLC = test system: HOP-92 NSCLC
HT29 colon = test system: HT29 colon
K-562 leukemia = test system: K-562 leukemia
KM12 colon = test system: KM12 colon
LOX IMVI melanoma = test system: LOX IMVI melanoma
M14 melanoma = test system: M14 melanoma
MALME-3M melanoma = test system: MALME-3M melanoma
MDA-MB-231 breast = test system: MDA-MB-231 breast
MDA-MB-435 = test system: MDA-MB-435
MDA-N = test system: MDA-N
MOLT-4 leukemia = test system: MOLT-4 leukemia
NCI-H226 lung = test system: NCI-H226 lung
NCI-H23 lung = test system: NCI-H23 lung
NCI-H460 lung = test system: NCI-H460 lung
NCI-H522 lung = test system: NCI-H522 lung
NCI/ADR-RES ovarian = test system: NCI/ADR-RES ovarian
OVCAR-3 ovarian = test system: OVCAR-3 ovarian
OVCAR-4 ovarian = test system: OVCAR-4 ovarian
OVCAR-5 ovarian = test system: OVCAR-5 ovarian
OVCAR-8 ovarian = test system: OVCAR-8 ovarian
PC-3 prostate = test system: PC-3 prostate
RPMI-8226 leukemia = test system: RPMI-8226 leukemia
SF-268 CNS = test system: SF-268 CNS
SF-295 CNS = test system: SF-295 CNS
SF-539 CNS = test system: SF-539 CNS
SK-MEL-2 melanoma = test system: SK-MEL-2 melanoma
SK-MEL-28 melanoma = test system: SK-MEL-28 melanoma
SK-MEL-5 melanoma = test system: SK-MEL-5 melanoma
SK-OV-3 ovarian = test system: SK-OV-3 ovarian
SN12C renal = test system: SN12C renal
SNB-19 CNS = test system: SNB-19 CNS
SNB-75 CNS = test system: SNB-75 CNS
SW-620 colon = test system: SW-620 colon
T-47D breast = test system: T-47D breast
TK-10 renal = test system: TK-10 renal
U251 CNS = test system: U251 CNS
UACC-257 melanoma = test system: UACC-257 melanoma
UACC-62 melanoma = test system: UACC-62 melanoma
UO-31 renal = test system: UO-31 renal
HCC-2998 colon = test system: HCC-2998 colon
HOP-62 NSCLC = test system: HOP-62 NSCLC
IGROV1 ovarian = test system: IGROV1 ovarian
MCF7 breast = test system: MCF7 breast
RXF 393 renal = test system: RXF 393 renal
SR leukemia = test system: SR leukemia

Measured: TGI

CC(C)(C)OC(=O)C(C#N)C(=O)c1ccc(C(=O)O)[nH]1 (stereo unspecified)
77.2 µM: A498 renal
68.5 µM: SK-MEL-2 melanoma
38.5 µM: NCI/ADR-RES ovarian
73.6 µM: HOP-92 NSCLC
52.9 µM: OVCAR-4 ovarian
45.7 µM: UACC-62 melanoma
62.1 µM: HL-60(TB) leukemia
41.5 µM: CAKI-1 renal
not listed: HCC-2998 colon | HOP-62 NSCLC | IGROV1 ovarian | MCF7 breast | RXF 393 renal | SR leukemia
> 100 µM: all other assays above

COC(=O)C1C(=O)CC(C)(O)C(C(=O)OC)C1c1ccc(N(C)C)cc1 (stereo unspecified)
24.7 µM: 786-0 renal
24.4 µM: LOX IMVI melanoma
21 µM: HCT-116 colon
not listed: M14 melanoma | RPMI-8226 leukemia | SF-539 CNS | SK-OV-3 ovarian
> 100 µM: all other assays above
